Data taken from BindingDB's records for doi:10.1021/jm00159a032 (1986).

Target: Thymidylate synthase (Streptococcus faecium)
Assay: Inhibitory activity against thymidylate synthase of Streptococcus faecium

Structure (SMILES): C#CN(Cc1ccc2nc(N)[nH]c(=O)c2c1)c1ccc(C(=O)NC(CCC(=O)NC(CCC(=O)NC(CCC(=O)O)C(=O)O)C(=O)O)C(=O)O)cc1 (stereo unspecified) [4-[4-(4-{4-[(2-Amino-4-hydroxy-quinazolin-6-ylmethyl)-ethynyl-amino]-benzoylamino}-4-carboxy-butyrylamino)-4-carboxy-butyrylamino]-4-carboxy-butyric acid anion]
- IC50: 5.5 nM
